pEC50: −log10 of the molar value.
How the values were obtained:
human CB2 receptors = human CB2 receptors (Homo sapiens (Human), UniProt P34972); experiment: cAMP assay, CHO cells expressing human CB2 receptors; type: cell-based; conditions: CHO cells expressing human CB2, cAMP; read-out: human CB2 EC50
How it was run: (§1)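 In this cellular cAMP test, IBMX (1 mM) blocked phosphodiesterase during a 30-min, 30 °C compound exposure. Accumulated cAMP was measured by a lysis-based TR-FRET kit and interpolated from a standard curve to give EC50.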

human CB1 receptors = human CB1 receptors (Homo sapiens (Human), UniProt P21554); experiment: cAMP assay, CHO cells expressing human CB1 receptors; type: cell-based; conditions: CHO cells expressing human CB1, cAMP; read-out: human CB1 EC50
How it was run: as §1

Sequence of human CB1 receptors (P21554 whole entry): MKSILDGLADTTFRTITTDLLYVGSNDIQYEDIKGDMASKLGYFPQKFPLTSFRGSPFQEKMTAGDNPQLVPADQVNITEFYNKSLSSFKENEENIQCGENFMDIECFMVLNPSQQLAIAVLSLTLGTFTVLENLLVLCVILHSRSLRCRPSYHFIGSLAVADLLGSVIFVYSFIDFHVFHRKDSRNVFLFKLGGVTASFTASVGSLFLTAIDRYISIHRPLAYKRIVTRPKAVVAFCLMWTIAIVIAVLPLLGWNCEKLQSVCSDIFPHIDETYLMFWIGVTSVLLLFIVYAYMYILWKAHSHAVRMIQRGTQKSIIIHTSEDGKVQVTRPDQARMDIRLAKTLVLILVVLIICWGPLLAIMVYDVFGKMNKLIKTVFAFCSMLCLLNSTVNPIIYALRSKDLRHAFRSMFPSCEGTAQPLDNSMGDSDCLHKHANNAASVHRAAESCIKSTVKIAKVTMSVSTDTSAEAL
Sequence of human CB2 receptors (P34972 whole entry): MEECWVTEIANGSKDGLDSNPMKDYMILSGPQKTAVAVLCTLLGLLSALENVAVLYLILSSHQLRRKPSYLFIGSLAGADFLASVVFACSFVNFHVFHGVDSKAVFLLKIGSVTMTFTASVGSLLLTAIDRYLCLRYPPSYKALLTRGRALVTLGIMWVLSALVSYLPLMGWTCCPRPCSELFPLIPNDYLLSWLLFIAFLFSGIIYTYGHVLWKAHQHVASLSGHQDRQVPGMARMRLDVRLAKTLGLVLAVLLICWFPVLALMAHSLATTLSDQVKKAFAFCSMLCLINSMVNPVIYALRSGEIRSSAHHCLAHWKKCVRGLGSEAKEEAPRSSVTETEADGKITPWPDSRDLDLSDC

CC1(COc2nc(C(=O)NC(C)(C)c3nccs3)ccc2N2CC(F)(F)C2)COC1 [Example 295, 5-(3,3-Difluoro-azetidin-1-yl)-6-(3-methyl-oxetan-3-ylmethoxy)-pyridine-2-carboxylic acid (1-methyl-1-thiazol-2-yl-ethyl)-amide]
pEC50 (human CB2 receptors): 6.59
pEC50 (human CB1 receptors): < 5.00

CC(C)(NC(=O)c1ccc(C2CC2)c(OCC2CC2)n1)c1noc(N)n1 [Example 296, 5-Cyclopropyl-6-cyclopropylmethoxy-pyridine-2-carboxylic acid [1-(5-amino-[1,2,4]oxadiazol-3-yl)-1-methyl-ethyl]-amide]
pEC50 (human CB2 receptors): 7.22
pEC50 (human CB1 receptors): < 5.00

CCC(CC)(NC(=O)c1cccc(OCC(F)(F)C(F)(F)F)n1)C(=O)NC [Example 297, 6-(2,2,3,3,3-Pentafluoro-propoxy)-pyridine-2-carboxylic acid (1-ethyl-1-methylcarbamoyl-propyl)-amide]
pEC50 (human CB2 receptors): 6.02
pEC50 (human CB1 receptors): < 5.00

CCC(CC)(NC(=O)c1ccc(C2CC2)c(OCC(F)(F)C(F)(F)F)n1)C(=O)NC [Example 298, 5-Cyclopropyl-6-(2,2,3,3,3-pentafluoro-propoxy)-pyridine-2-carboxylic acid (1-ethyl-1-methylcarbamoyl-propyl)-amide]
pEC50 (human CB2 receptors): 7.85
pEC50 (human CB1 receptors): < 5.00

CNC(=O)[C@H](CC(C)(C)C)NC(=O)c1ccc(C2CC2)c(OCC(F)(F)C(F)(F)F)n1 [Example 299, 5-Cyclopropyl-6-(2,2,3,3,3-pentafluoro-propoxy)-pyridine-2-carboxylic acid ((S)-3,3-dimethyl-1-methylcarbamoyl-butyl)-amide]
pEC50 (human CB2 receptors): 7.56
pEC50 (human CB1 receptors): 6.22

Cc1nc([C@H](CC2CC2)NC(=O)c2ccc(C3CC3)c(OCC(F)(F)C(F)(F)F)n2)no1 [Example 300, 5-Cyclopropyl-6-(2,2,3,3,3-pentafluoro-propoxy)-pyridine-2-carboxylic acid [(S)-2-cyclopropyl-1-(5-methyl-[1,2,4]oxadiazol-3-yl)-ethyl]-amide]
pEC50 (human CB2 receptors): 7.50
pEC50 (human CB1 receptors): < 5.00

NC(=O)[C@@H](NC(=O)c1ccc(C2CC2)c(OCC(F)(F)F)n1)c1ccccc1 [Example 301, 5-Cyclopropyl-6-(2,2,2-trifluoro-ethoxy)-pyridine-2-carboxylic acid ((S)-carbamoyl-phenyl-methyl)-amide]
pEC50 (human CB2 receptors): 6.89
pEC50 (human CB1 receptors): < 5.00

O=C(NC(c1ccccn1)C(F)(F)F)c1ccc(C2CC2)c(OCC(F)(F)F)n1 (stereo not drawn) [Example 302, 5-Cyclopropyl-6-(2,2,2-trifluoro-ethoxy)-pyridine-2-carboxylic acid (2,2,2-trifluoro-1-pyridin-2-yl-ethyl)-amide]
pEC50 (human CB2 receptors): 6.23
pEC50 (human CB1 receptors): < 5.00

CC(C)C[C@@H](CO)NC(=O)c1ccc(C2CC2)c(OCC(F)(F)F)n1 [Example 303, 5-Cyclopropyl-6-(2,2,2-trifluoro-ethoxy)-pyridine-2-carboxylic acid ((S)-1-hydroxymethyl-3-methyl-butyl)-amide]
pEC50 (human CB2 receptors): 7.42
pEC50 (human CB1 receptors): < 5.00

O=C(NC1(c2nccs2)COC1)c1ccc(C2CC2)c(OCC(F)(F)F)n1 [Example 304, 5-Cyclopropyl-6-(2,2,2-trifluoro-ethoxy)-pyridine-2-carboxylic acid (3-thiazol-2-yl-oxetan-3-yl)-amide]
pEC50 (human CB2 receptors): 6.87
pEC50 (human CB1 receptors): < 5.00

CC(C)(NC(=O)c1ccc(C2CC2)c(OCC(F)(F)F)n1)c1nccs1 [Example 305, 5-Cyclopropyl-6-(2,2,2-trifluoro-ethoxy)-pyridine-2-carboxylic acid (1-methyl-1-thiazol-2-yl-ethyl)-amide]
pEC50 (human CB2 receptors): 7.30
pEC50 (human CB1 receptors): < 5.00

CC(C)(C)C(NC(=O)c1ccc(C2CC2)c(OCC(F)(F)F)n1)c1nccs1 (stereo not drawn) [Example 306, 5-Cyclopropyl-6-(2,2,2-trifluoro-ethoxy)-pyridine-2-carboxylic acid (2,2-dimethyl-1-thiazol-2-yl-propyl)-amide]
pEC50 (human CB2 receptors): 6.86
pEC50 (human CB1 receptors): < 5.00

CCC(CC)(NC(=O)c1ccc(N2CC(F)(F)C2)c(OCC2CC2)n1)C(=O)N1CC(F)(F)C1 [Example 307, 6-Cyclopropylmethoxy-5-(3,3-difluoro-azetidin-1-yl)-pyridine-2-carboxylic acid [1-(3,3-difluoro-azetidine-1-carbonyl)-1-ethyl-propyl]-amide]
pEC50 (human CB2 receptors): 8.33
pEC50 (human CB1 receptors): < 5.00

O=C(NNC1CCS(=O)(=O)C1)c1cccc(Cc2ccc(F)cc2)n1 (stereo not drawn) [Example 308, 6-(4-Fluoro-benzyl)-pyridine-2-carboxylic acid N′-(1,1-dioxo-tetrahydro-1λ^6-thiophen-3-yl)-hydrazide]
pEC50 (human CB2 receptors): 6.24
pEC50 (human CB1 receptors): < 5.00

CC(C)(NC(=O)c1ccc(C2CC2)c(OCC2CC2)n1)c1nc(N)no1 [Example 309, 5-Cyclopropyl-6-cyclopropylmethoxy-pyridine-2-carboxylic acid [1-(3-amino-[1,2,4]oxadiazol-5-yl)-1-methyl-ethyl]-amide]
pEC50 (human CB2 receptors): 6.75
pEC50 (human CB1 receptors): < 5.00

CC(C)(C)[C@H](NC(=O)c1ccc(N2CC(F)(F)C2)c(OCC2CC2)n1)C(=O)N1CC(F)(F)C1 [Example 310, 6-Cyclopropylmethoxy-5-(3,3-difluoro-azetidin-1-yl)-pyridine-2-carboxylic acid [(S)-1-(3,3-difluoro-azetidine-1-carbonyl)-2,2-dimethyl-propyl]-amide]
pEC50 (human CB2 receptors): 7.83
pEC50 (human CB1 receptors): < 5.00

CC(C)C[C@H](NC(=O)c1ccc(N2CC(F)(F)C2)c(OCC2CC2)n1)C(=O)N1CC(F)(F)C1 [Example 311, 6-Cyclopropylmethoxy-5-(3,3-difluoro-azetidin-1-yl)-pyridine-2-carboxylic acid [(S)-1-(3,3-difluoro-azetidine-1-carbonyl)-3-methyl-butyl]-amide]
pEC50 (human CB2 receptors): 8.08
pEC50 (human CB1 receptors): < 5.00

CCOC(=O)C(CC)(CC)NC(=O)c1ccc(C(F)(F)F)c(OCC2CC2)n1 [Example 312, 2-[(6-Cyclopropylmethoxy-5-trifluoromethyl-pyridine-2-carbonyl)-amino]-2-ethyl-butyric acid ethyl ester]
pEC50 (human CB2 receptors): 8.62
pEC50 (human CB1 receptors): < 5.00

CCC(CC)(NC(=O)c1ccc(C2CC2)c(O[C@H](CCO)C(F)(F)F)n1)C(=O)NC [Example 313, 5-Cyclopropyl-6-((R)-3-hydroxy-1-trifluoromethyl-propoxy)-pyridine-2-carboxylic acid (1-ethyl-1-methylcarbamoyl-propyl)-amide]
pEC50 (human CB2 receptors): 6.01
pEC50 (human CB1 receptors): < 5.00

CCC(CC)(NC(=O)c1ccc(C2CC2)c(OCC[C@@H](O)C(F)(F)F)n1)C(=O)NC [Example 314, 5-Cyclopropyl-6-((R)-4,4,4-trifluoro-3-hydroxy-butoxy)-pyridine-2-carboxylic acid (1-ethyl-1-methylcarbamoyl-propyl)-amide]
pEC50 (human CB2 receptors): 7.79
pEC50 (human CB1 receptors): 5.90

CC(C)CC(NC(=O)c1ccc(N2CC(F)(F)C2)c(OCC2CC2)n1)c1ccccn1 (stereo not drawn) [Example 315, 6-Cyclopropylmethoxy-5-(3,3-difluoro-azetidin-1-yl)-pyridine-2-carboxylic acid (3-methyl-1-pyridin-2-yl-butyl)-amide]
pEC50 (human CB2 receptors): 6.72
pEC50 (human CB1 receptors): 5.63

CCC(CC)(NC(=O)c1ccc(C(F)(F)F)c(OCC2CC2)n1)C(=O)N1CC(F)(F)C1 [Example 316, 6-Cyclopropylmethoxy-5-trifluoromethyl-pyridine-2-carboxylic acid [1-(3,3-difluoro-azetidine-1-carbonyl)-1-ethyl-propyl]-amide]
pEC50 (human CB2 receptors): 8.51
pEC50 (human CB1 receptors): < 5.00

CC(C)C[C@H](NC(=O)c1cccc(C(O)c2ccc(F)cc2)n1)C(N)=O (stereo partly drawn) [Example 317, 6-[(4-Fluoro-phenyl)-hydroxy-methyl]-pyridine-2-carboxylic acid ((S)-1-carbamoyl-3-methyl-butyl)-amide]
pEC50 (human CB2 receptors): 7.62
pEC50 (human CB1 receptors): < 5.00

Cc1nc([C@H](CC(C)C)NC(=O)c2cccc(C(O)c3ccc(F)cc3)n2)no1 (stereo partly drawn) [Example 318, 6-[(4-Fluoro-phenyl)-hydroxy-methyl]-pyridine-2-carboxylic acid [(S)-3-methyl-1-(5-methyl-[1,2,4]oxadiazol-3-yl)-butyl]-amide]
pEC50 (human CB2 receptors): 7.60
pEC50 (human CB1 receptors): < 5.00

CCC(CC)(NC(=O)c1ccc(C2CC2)c(O[C@@H](CCO)C(F)(F)F)n1)C(=O)NC [Example 319, 5-Cyclopropyl-6-((S)-3-hydroxy-1-trifluoromethyl-propoxy)-pyridine-2-carboxylic acid (1-ethyl-1-methylcarbamoyl-propyl)-amide]
pEC50 (human CB2 receptors): 6.46
pEC50 (human CB1 receptors): < 5.00

CCC(CC)(NC(=O)c1ccc(C2CC2)c(OCC[C@H](O)C(F)(F)F)n1)C(=O)NC [Example 320, 5-Cyclopropyl-6-((S)-4,4,4-trifluoro-3-hydroxy-butoxy)-pyridine-2-carboxylic acid (1-ethyl-1-methylcarbamoyl-propyl)-amide]
pEC50 (human CB2 receptors): 8.36
pEC50 (human CB1 receptors): 6.49

CC(C)CC(NC(=O)c1ccc(N2CC(F)(F)C2)c(OCC2CC2)n1)c1cccnn1 (stereo not drawn) [Example 321, 6-Cyclopropylmethoxy-5-(3,3-difluoro-azetidin-1-yl)-pyridine-2-carboxylic acid (3-methyl-1-pyridazin-3-yl-butyl)-amide]
pEC50 (human CB2 receptors): 7.72
pEC50 (human CB1 receptors): < 5.00

Cc1nc(C(C)(C)NC(=O)c2ccc(N3CC(=O)C3)c(OCC3CC3)n2)no1 [Example 322, 6-Cyclopropylmethoxy-5-(3-oxo-azetidin-1-yl)-pyridine-2-carboxylic acid [1-methyl-1-(5-methyl-[1,2,4]oxadiazol-3-yl)-ethyl]-amide]
pEC50 (human CB2 receptors): 6.37
pEC50 (human CB1 receptors): < 5.00

Cc1nc([C@@](C)(NC(=O)c2ccc(C3CC3)c(OCC3CC3)n2)C2CC2)no1 [Example 323, 5-Cyclopropyl-6-cyclopropylmethoxy-pyridine-2-carboxylic acid [(+)-1-cyclopropyl-1-(5-methyl-[1,2,4]oxadiazol-3-yl)-ethyl]-amide]
pEC50 (human CB2 receptors): 9.05
pEC50 (human CB1 receptors): 6.74

Cc1nc([C@](C)(NC(=O)c2ccc(C3CC3)c(OCC3CC3)n2)C2CC2)no1 [Example 324]
pEC50 (human CB2 receptors): 8.39
pEC50 (human CB1 receptors): < 5.00

Reference: patent publication US9290451B2 (Hoffmann-La Roche Inc., priority 2011, dated 2016)
